Each compound was assayed against Cannabinoid receptor 2 (Homo sapiens) (UniProt P34972) (assay: Binding affinity to CB2 receptor).
Sequence of Cannabinoid receptor 2 (Homo sapiens) (P34972 whole entry, looked up): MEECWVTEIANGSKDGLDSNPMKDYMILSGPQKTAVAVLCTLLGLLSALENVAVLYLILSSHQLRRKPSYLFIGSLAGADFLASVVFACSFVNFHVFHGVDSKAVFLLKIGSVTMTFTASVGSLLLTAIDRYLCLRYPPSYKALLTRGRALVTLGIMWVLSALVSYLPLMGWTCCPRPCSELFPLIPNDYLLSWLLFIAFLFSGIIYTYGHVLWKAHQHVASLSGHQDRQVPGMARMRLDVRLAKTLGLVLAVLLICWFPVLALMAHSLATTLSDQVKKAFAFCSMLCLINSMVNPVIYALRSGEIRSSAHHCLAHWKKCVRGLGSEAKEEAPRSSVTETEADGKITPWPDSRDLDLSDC
For `C[C@H](NS(=O)(=O)C(F)(F)F)c1ccc(S(=O)(=O)c2ccc(Cl)cc2S(=O)(=O)c2c(N)cccc2F)cc1`, the Ki was 4.1 nM.
With `C[C@H](NCCC(F)(F)F)c1ccc(S(=O)(=O)c2ccc(Cl)cc2S(=O)(=O)c2ccccc2F)cc1` the Ki was 17 nM.
`C[C@H](NS(C)(=O)=O)c1ccc(S(=O)(=O)c2ccc(Cl)cc2S(=O)(=O)c2ccccn2)cc1` was tested, and the Ki was 2.9 nM.
For `C[C@H](NS(C)(=O)=O)c1ccc(S(=O)(=O)c2ccc(Cl)cc2S(=O)(=O)c2cccc[n+]2[O-])cc1`, the Ki was 119 nM.
For `C[C@H](NS(=O)(=O)C(F)(F)F)c1ccc(S(=O)(=O)c2ccc(C(F)(F)F)cc2S(=O)(=O)c2ccccc2F)cc1`, the Ki was 2.5 nM.
`C[C@H](NCC(F)(F)F)c1ccc(S(=O)(=O)c2ccc(Cl)cc2S(=O)(=O)c2ccccc2F)cc1` showed a Ki of 7 nM.
With `C[C@H](NS(=O)(=O)C(F)(F)F)c1ccc(S(=O)(=O)c2ccccc2S(=O)(=O)c2ccccc2F)cc1` the Ki was 25 nM.
For `C[C@H](NS(=O)(=O)C(F)(F)F)c1ccc(S(=O)(=O)c2ccc(O)cc2S(=O)(=O)c2ccccc2F)cc1`, the Ki was 1.3 nM.
Work on `CNS(=O)(=O)c1cc(Cl)ccc1S(=O)(=O)c1ccc([C@H](C)NS(C)(=O)=O)cc1` yielded a Ki of 1250 nM.
`C[C@H](N)c1ccc(S(=O)(=O)c2ccc(Cl)cc2S(=O)(=O)c2ccccc2F)cc1` gave a Ki of 3950 nM.
Work on `C[C@H](NS(=O)(=O)C(F)(F)F)c1ccc(S(=O)(=O)c2ccc(Cl)cc2S(=O)(=O)c2c(F)cccc2N2CCOCC2)cc1` yielded a Ki of 140 nM.
`C[C@H](NS(=O)(=O)C(F)(F)F)c1ccc(S(=O)(=O)c2ccc(OC(F)(F)F)cc2S(=O)(=O)c2ccccc2F)cc1` gave a Ki of 5 nM.
Work on `C[C@H](NS(C)(=O)=O)c1ccc(S(=O)(=O)c2ccc(Cl)cc2S(=O)(=O)c2ccccc2F)cc1` yielded a Ki of 1.3 nM.
`CCCS(=O)(=O)c1cc(Cl)ccc1S(=O)(=O)c1ccc([C@H](C)NS(C)(=O)=O)cc1` showed a Ki of 308 nM.
Work on `C[C@H](NS(C)(=O)=O)c1ccc(S(=O)(=O)c2ccc(Cl)cc2S(=O)(=O)c2cccc3cccnc23)cc1` yielded a Ki of 204 nM.
In the case of `CNc1cccc(F)c1S(=O)(=O)c1cc(Cl)ccc1S(=O)(=O)c1ccc([C@H](C)NS(=O)(=O)C(F)(F)F)cc1`, the Ki is reported as 22 nM.
With `C[C@H](NC(=O)C(F)(F)F)c1ccc(S(=O)(=O)c2ccc(Cl)cc2S(=O)(=O)c2ccccc2F)cc1` the Ki was 3.7 nM.
`C[C@H](NS(=O)(=O)C(F)(F)F)c1ccc(S(=O)(=O)c2ccc(N3CCNCC3)cc2S(=O)(=O)c2ccccc2F)cc1` showed a Ki of 1100 nM.
In the case of `C[C@H](NS(=O)(=O)C(F)(F)F)c1ccc(S(=O)(=O)c2ccc(N)cc2S(=O)(=O)c2ccccc2F)cc1`, the Ki is reported as 10 nM.
With `C[C@H](NS(C)(=O)=O)c1ccc(S(=O)(=O)c2ccc(Cl)cc2S(=O)(=O)N(C)C)cc1` the Ki was 1270 nM.

From ChEMBL document CHEMBL1139959, “Optimization of triaryl bis-sulfones as cannabinoid-2 receptor ligands” (Bioorg Med Chem Lett, 2007)
